# Where “and” joins values, the source holds several entries; their conditions need not be identical. Equal values may be shown once.
# Key:
# strain NGCI-070 = assay: Extractive fermentation, examples GLNOR661A-666A, 690A-695A, 721A-726A, 749A-754A; details: pH 5.5, fermentation broth
# Procedure: (§1) Fermentation conditions: 30% pO2; temperature: 30° C.; pH 5.5 (unless noted otherwise); initial batch glucose: 20 g/L, maintained during production.
# (§2) Both HPLC and GC analyses were used for the quantization of isobutanol in the aqueous phase and solvent phase respectively. Isobutanol in the aqueous was measured after filtration through a 0.2 um nylon filter with a HPLC (Agilent 1100, Agilent, Santa Clara, Calif.) under the following conditions: • Column: Bio-Rad, Aminex HPX-87H, No. 125-0143 • Mobile Phase: […] • Injection Volume: 10 uL • Flow Rate: 0.6 mL/min • Run Time: 22.5 minutes • Column Temperature: 65° C. • Detectors: Refractive Index • Detector Temperature: 40° C. • UV Detection: 210 nm, 4 nm bandwidth, Ref 360 nm, 100 nm bandwidth.
# (§3) The solvent phase was measured with a GC (HP6890, Agilent, Santa Clara, Calif.) under the following conditions: • Column: J&W Scientific DB Waxter (50 m×0.32 mm ID, 1 um film) • Gas Carrier: Helium 4 mL/min • Injection Volume: 2 uL • Make Up Flow Rate: 40 mL/min • Run Time: 29 minutes • Oven Temperature: 40° C. for 5 min, 40° C. to 230° C. @10° C./min., 5 min 230° C. • Injector Split: 1:5 @ 250° C. • Flame Ionization Detection: 250° C.
# (§4) The extractants were added to the fermentor broth at time zero exposing the culture to the solvent for the duration of the fermentation. Isobutanol concentrations in both the aqueous phase and organic phase were measured to calculate the partitioning coefficient of the extraction solvent. Glucose utilization was used to determine the biocompatability of the microorganism to the extractant.
# (§5) The fermentations were carried out as described with the strain NGCI-065. The inoculum was prepared in two stages and incubated at 30° C. and 250 rpm in an incubator shaker (Innova 4200, New Brunswick Scientific, Edison, N.J.). The first stage or pre-seed was inoculated from a frozen glycerol seed stock, two vials were placed into a 250 mL flask with 30 mL of filter sterilized pre-seed media (Table 4) and grown for 24 hours to an OD of approximately 2. 15 mL of the pre-seed was then transferred to a 2 L flask with 270 mL of filter sterilized seed media (Table 5) for the second stage which was incubated for 24 hours. 30 mL of filter sterilized 10× YEP and 300 mL of filter sterilized 90-95% oleyl alcohol was then added and incubated for an additional 24 hours to a final OD of approximately 5-10 in the aqueous phase of the seed culture. For examples GLNOR639 and GLNOR640, the pH was 4.5.
# Fermentation vessels (Applikon AD1010 Bioreactor, Applikon Biotechnology, Dover, N.J.) were sterilized with diH2O for 30 minutes (Amsco Renaissance 3033 Revas Steam Sterilizer, Steris Corporation, Mentor, Ohio). Once the vessels were finished sterilization in the autoclave and cooled to 30° C., the sterile diH2O was removed and the filter sterilized fermentation media was added to a volume of 280 mL. 70 mL of the aqueous phase from the second stage seed flasks was added to the fermentation vessel for a final aqueous volume of 350 mL. Immediately after inoculation, 100 mL of 10× YEP media supplementation was added as well as 450 mL of the respective extraction solvent for a final solvent to broth ratio of approximately 1:1. Fermentation set-point conditions were temperature 30° C., pO2 30%, pH 5.5 for GLNOR635A-638A and pH 4.5 for GLNOR639A-640A. The fermentation was sampled approximately every 8 hours from the time of inoculation to monitor glucose concentration, which was maintained between 5-20 g/L through the addition of 50% w/w glucose solution, and analyzed for isobutanol accumulation in both the aqueous phase and the extractant phase. Enough sample volume was taken at each time point to obtain a sample from both of the phases, then those samples were centrifuged in order to ensure a clean cut of each.
# The examples in this set were performed the same as in the previous examples GLNOR635A-640A with the exception of the strain, pH, and supplement addition at time zero.
# strain NGCI-065 = assay: Extractive fermentation, examples GLNOR635A-640A
# Procedure: as §1, §2, §3, §4, §5
# Fermentation vessels (Applikon AD1010 Bioreactor, Applikon Biotechnology, Dover, N.J.) were sterilized with diH2O for 30 minutes (Amsco Renaissance 3033 Revas Steam Sterilizer, Steris Corporation, Mentor, Ohio). Once the vessels were finished sterilization in the autoclave and cooled to 30° C., the sterile diH2O was removed and the filter sterilized fermentation media was added to a volume of 280 mL. 70 mL of the aqueous phase from the second stage seed flasks was added to the fermentation vessel for a final aqueous volume of 350 mL. […] The fermentation was sampled approximately every 8 hours from the time of inoculation to monitor glucose concentration, which was maintained between 5-20 g/L through the addition of 50% w/w glucose solution, and analyzed for isobutanol accumulation in both the aqueous phase and the extractant phase. […]
# [1] = tested on: Saccharomyces butanologen NGCI-070; assay: Shake flask incubation with fermentation broth, glucose consumption followed over time; type: cell-based, Saccharomyces cerevisiae; details: 3 parts broth to 1 part extractant
# Procedure: Fatty amide/fatty acid aqueous ammonia preparation (1), and a preparation (1 a) constituted by preparation (1) mixed 1:1 with pure corn oil fatty acid (equivalent to 1:2 fatty amide:fatty acid) were incubated in shake flasks with fermentation broth containing the Saccharomyces butanologen NGCI-070 at a ratio of 3 parts broth to 1 part amide/acid mixture. […] Starting at a glucose concentration of 8.35 g/L, the shake flasks were then incubated for 25 h on an incubator shaker and the consumption of glucose followed as a function of time.
smiles,measurement,setting,value
"CCCCCCC(CO)CCCC (stereo not drawn) [Isofol ™ 12, 2-butyl-1-octanol]",Kp (solvent partition coefficient),strain NGCI-070; listed as GLNOR749,4.05
same,Kp (solvent partition coefficient),strain NGCI-070; listed as GLNOR750,4.22
CCCCCCCC/C=C\CCCCCCCC(=O)O [Oleic Acid],Kp (solvent partition coefficient),"strain NGCI-065; pH 4.5, fermentation broth, listed as GLNOR639",2.54
same,Kp (solvent partition coefficient),"strain NGCI-065; pH 4.5, fermentation broth, listed as GLNOR640",2.51
same,Kp (solvent partition coefficient),"strain NGCI-065; pH 5.5, fermentation broth, listed as GLNOR637",2.64
same,Kp (solvent partition coefficient),"strain NGCI-065; pH 5.5, fermentation broth, listed as GLNOR638",2.56
same,Kp (solvent partition coefficient),strain NGCI-070; listed as GLNOR665,2.61
same,Kp (solvent partition coefficient),strain NGCI-070; listed as GLNOR666,2.51
CCCCCCCC/C=C\CCCCCCCCO [Oleyl Alcohol],Glucose conc.,[1]; 18 hrs,4.26 g/L and 4.46 g/L
same,Glucose conc.,[1]; 25 hrs,0 g/L
same,Glucose conc.,[1]; Time = 0,8.35 g/L
same,Kp (solvent partition coefficient),"strain NGCI-065; pH 5.5, fermentation broth",3.38
same,Kp (solvent partition coefficient),strain NGCI-070; listed as GLNOR661,3.35
same,Kp (solvent partition coefficient),strain NGCI-070; listed as GLNOR690,3.74
same,Kp (solvent partition coefficient),strain NGCI-070; listed as GLNOR691,3.77

# Reference: patent US9206448B2, “Extraction solvents derived from oil for alcohol removal in extractive fermentation” (Butamax Advanced Biofuels LLC, priority 2010, dated 2015)
